This note sets out measurements from patent US20070203325A1, “Integrase-dirived HIV-inhibiting agents” (priority 2006, published 2007).

In assay [1] the test system is HIV-1 NL4.3-Nef+/GFP+. The assay can be described thus: Infection of HeLa-β-Gal-CD4/CCR5 cells by virus from producer cells expressing the IN C-terminal domain, MAGI assay. The conditions noted are these: viruses produced by 293T cells expressing the protein, 48 h post-infection. It is filed as cell-based.
Assay [2] deals with HIV-1 NL4.3-Nef+/GFP+. In words: Infection of MT4 cells by virus from producer cells expressing the IN C-terminal domain, GFP-positive cell count. It is filed as cell-based. The conditions noted are these: viruses produced by 293T cells expressing the protein, 48 h post-infection.

In the case of “IN C-terminal domain: T7-tagged HIV-1 integrase C-terminal domain 205-288 (SEQ ID NO:2) expressed in viral producer cells”, the “virus infection of HeLa-β-Gal-CD4/CCR5 cells” value in the assay with HIV-1 NL4.3-Nef+/GFP+ [1] is recorded as “significantly impaired”. Besides, the “virus infection of MT4 cells” value in the assay on HIV-1 NL4.3-Nef+/GFP+ [2] was “significantly impaired”.
